Biological target: Sodium channel protein type 9 subunit alpha (Homo sapiens, UniProt Q15858)
Test: FLIPR Assay: In vitro assays were performed in a recombinant cell line expressing cDNA encoding the alpha subunit (Nav1.7, SCN9a, PN1, NE) of human Nav1.7 (Accession No. NM_002977). The cell line was provided by investigators at Yale University (Cummins et al, J. Neurosci. 18(23): 9607-9619 (1998)). For dominant selection of the Nav1.7-expressing clones, the expression plasmid co-expressed the neomycin resistance gene. The cell line was constructed in the human embryonic kidney cell line, HEK293, under the influence of the CMV […] promoter, and stable clones were selected using limiting dilution cloning and antibiotic selection using the neomycin analogue, G418. Recombinant beta and gamma subunits were not introduced into this cell line. Additional cell lines expressing recombinant Nav1.7 cloned from other species can also be used, alone or in combination with various beta subunits, gamma subunits or chaperones.

Sequence of Sodium channel protein type 9 subunit alpha (Q15858 whole entry): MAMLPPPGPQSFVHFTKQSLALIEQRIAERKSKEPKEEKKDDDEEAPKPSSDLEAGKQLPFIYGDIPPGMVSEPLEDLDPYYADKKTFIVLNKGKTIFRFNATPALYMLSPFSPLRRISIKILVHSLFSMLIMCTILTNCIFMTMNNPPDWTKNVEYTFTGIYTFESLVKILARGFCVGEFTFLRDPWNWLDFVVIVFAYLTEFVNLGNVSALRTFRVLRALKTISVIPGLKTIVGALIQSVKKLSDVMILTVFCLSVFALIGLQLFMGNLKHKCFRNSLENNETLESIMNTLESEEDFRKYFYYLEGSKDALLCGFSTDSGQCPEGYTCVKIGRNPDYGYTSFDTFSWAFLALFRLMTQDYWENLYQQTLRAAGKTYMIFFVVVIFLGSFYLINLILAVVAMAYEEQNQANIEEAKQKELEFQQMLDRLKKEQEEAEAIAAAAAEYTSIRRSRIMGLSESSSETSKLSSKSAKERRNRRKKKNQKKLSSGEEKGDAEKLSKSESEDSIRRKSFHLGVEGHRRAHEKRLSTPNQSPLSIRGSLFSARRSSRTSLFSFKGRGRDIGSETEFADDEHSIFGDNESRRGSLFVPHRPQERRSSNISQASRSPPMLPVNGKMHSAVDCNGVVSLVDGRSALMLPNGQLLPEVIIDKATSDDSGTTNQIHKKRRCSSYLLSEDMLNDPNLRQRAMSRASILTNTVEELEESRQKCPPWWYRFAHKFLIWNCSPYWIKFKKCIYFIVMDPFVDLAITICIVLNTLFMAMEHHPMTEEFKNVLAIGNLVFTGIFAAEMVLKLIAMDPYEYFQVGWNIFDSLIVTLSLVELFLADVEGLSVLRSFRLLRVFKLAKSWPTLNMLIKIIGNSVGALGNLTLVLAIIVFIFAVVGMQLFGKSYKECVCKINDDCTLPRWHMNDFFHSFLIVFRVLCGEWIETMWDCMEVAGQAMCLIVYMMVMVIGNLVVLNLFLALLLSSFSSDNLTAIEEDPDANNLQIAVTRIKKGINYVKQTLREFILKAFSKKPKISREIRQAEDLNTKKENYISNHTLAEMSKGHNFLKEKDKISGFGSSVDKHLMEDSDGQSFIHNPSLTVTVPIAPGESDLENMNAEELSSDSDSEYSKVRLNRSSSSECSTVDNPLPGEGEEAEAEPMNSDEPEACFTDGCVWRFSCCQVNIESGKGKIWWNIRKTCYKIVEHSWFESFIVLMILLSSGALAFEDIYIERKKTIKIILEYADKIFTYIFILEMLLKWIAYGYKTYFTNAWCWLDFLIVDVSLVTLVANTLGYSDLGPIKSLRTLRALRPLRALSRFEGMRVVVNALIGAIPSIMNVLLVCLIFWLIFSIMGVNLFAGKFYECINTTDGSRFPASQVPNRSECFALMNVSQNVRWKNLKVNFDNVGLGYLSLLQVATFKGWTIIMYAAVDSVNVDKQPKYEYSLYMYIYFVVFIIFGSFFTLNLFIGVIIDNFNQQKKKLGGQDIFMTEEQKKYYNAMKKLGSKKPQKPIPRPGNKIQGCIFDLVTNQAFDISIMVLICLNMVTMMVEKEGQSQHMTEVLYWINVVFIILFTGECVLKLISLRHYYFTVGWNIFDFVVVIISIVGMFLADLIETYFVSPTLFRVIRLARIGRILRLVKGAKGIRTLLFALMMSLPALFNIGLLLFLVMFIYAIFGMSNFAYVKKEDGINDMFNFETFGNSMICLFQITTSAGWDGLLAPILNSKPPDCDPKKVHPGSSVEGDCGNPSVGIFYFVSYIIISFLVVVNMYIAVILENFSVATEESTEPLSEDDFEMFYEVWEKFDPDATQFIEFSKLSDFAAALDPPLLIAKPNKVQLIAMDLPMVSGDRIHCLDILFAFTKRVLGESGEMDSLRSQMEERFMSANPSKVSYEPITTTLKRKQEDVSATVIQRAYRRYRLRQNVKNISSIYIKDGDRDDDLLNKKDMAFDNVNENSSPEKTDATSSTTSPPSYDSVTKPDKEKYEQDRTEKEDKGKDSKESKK

Q: With `CC(C)C[C@H](NC(=O)C1CC1)C(=O)Nc1cccc(-c2ccc(Oc3ccc(F)cc3)cc2)n1` as the molecule, how does the IC50 read?
A: Its IC50 is 36 nM.

From ChEMBL document CHEMBL5725985, “Substituted pyridines as sodium channel blockers” (2017)
